# According to ChEMBL document CHEMBL5096191 (J Med Chem, 2021):
# What was measured:
# Format in all cases: functional, cell-based
# Cannabinoid receptor 2 [1] = target: T1, Cannabinoid receptor 2 (Homo sapiens, UniProt P34972, A282M); experiment: Partial agonist activity at CBR2 A2827.36M mutant (unknown origin) stably expressed in HEK293T assessed as decrease in forskolin induced cAMP level preincubated for 15 mins followed by forskolin addition incubated for 15 mins by HTRF assay
# [2] = tested on: Cannabinoid receptor 2 (Homo sapiens), P34972 [S285L]; experiment: Partial agonist activity at CBR2 S2857.39L mutant (unknown origin) expressed in HEK293T assessed as increase in picometer shifts of reflected light wavelengths by DMR assay relative to control; conditions: filed as partial agonist
# Cannabinoid receptor 2 (Homo sapiens), P34972 [S285L], sequence (P34972 whole entry S285L): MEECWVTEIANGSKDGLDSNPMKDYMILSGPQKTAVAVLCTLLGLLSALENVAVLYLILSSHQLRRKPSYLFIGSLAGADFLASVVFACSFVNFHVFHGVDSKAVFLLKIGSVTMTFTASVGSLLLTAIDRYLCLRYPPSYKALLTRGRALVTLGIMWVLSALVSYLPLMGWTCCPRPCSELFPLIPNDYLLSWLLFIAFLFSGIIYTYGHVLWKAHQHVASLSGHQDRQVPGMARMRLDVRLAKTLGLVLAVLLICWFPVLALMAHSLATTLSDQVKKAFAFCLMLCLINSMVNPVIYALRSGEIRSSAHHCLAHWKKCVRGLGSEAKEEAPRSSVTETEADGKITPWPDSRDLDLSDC
# Cannabinoid receptor 2 [3] = target: T2, Cannabinoid receptor 2 (Homo sapiens, UniProt P34972, V36M); experiment: Partial agonist activity at CBR2 V361.35M mutant (unknown origin) stably expressed in HEK293T assessed as decrease in forskolin induced cAMP level preincubated for 15 mins followed by forskolin addition incubated for 15 mins in presence of cannabidiol by HTRF assay
# T2 sequence (P34972 whole entry V36M): as the sequence (P34972 whole entry S285L) above, with V36M, L285S counted along it
# [4] = tested on: Cannabinoid receptor 2 (Homo sapiens), P34972 [V36M]; experiment: Partial agonist activity at CBR2 V361.35M mutant (unknown origin) expressed in HEK293T assessed as increase in picometer shifts of reflected light wavelengths in presence of cannabidiol by DMR assay relative to control; conditions: filed as partial agonist
# Cannabinoid receptor 2 (Homo sapiens), P34972 [V36M], sequence (P34972 whole entry V36M): as the sequence (P34972 whole entry S285L) above, with V36M, L285S counted along it
# Cannabinoid receptor 2 [5] = target: T3, Cannabinoid receptor 2 (Homo sapiens, UniProt P34972); experiment: Partial agonist activity at wild type CB2 receptor (unknown origin) stably expressed in HEK293T assessed as decrease in forskolin induced cAMP level preincubated for 15 mins followed by forskolin addition incubated for 15 mins in presence of cannabidiol by HTRF assay
# T3 sequence (P34972 whole entry): as the sequence (P34972 whole entry S285L) above, with L285S counted along it
# [6] = tested on: Cannabinoid receptor 2 (Homo sapiens), P34972 [V113M]; experiment: Partial agonist activity at CBR2 V1133.32M mutant (unknown origin) expressed in HEK293T assessed as increase in picometer shifts of reflected light wavelengths by DMR assay relative to control; conditions: filed as partial agonist
# Cannabinoid receptor 2 (Homo sapiens), P34972 [V113M], sequence (P34972 whole entry V113M): as the sequence (P34972 whole entry S285L) above, with V113M, L285S counted along it
# Cannabinoid receptor 2 [7] = target: T3, Cannabinoid receptor 2; experiment: Partial agonist activity at wild type CB2 receptor (unknown origin) expressed in HEK293T assessed as increase in ERK1/2 phosphorylation incubated for 7 mins by AlphaScreenSureFire method
# Cannabinoid receptor 2 [8] = target: T4, Cannabinoid receptor 2 (Homo sapiens, UniProt P34972, V113M); experiment: Partial agonist activity at CBR2 V1133.32M mutant (unknown origin) expressed in HEK293T assessed as increase in picometer shifts of reflected light wavelengths by DMR assay
# T4 sequence (P34972 whole entry V113M): as the sequence (P34972 whole entry S285L) above, with V113M, L285S counted along it
# Cannabinoid receptor 2 [9] = target: T2, Cannabinoid receptor 2; experiment: Partial agonist activity at CBR2 V361.35M mutant (unknown origin) expressed in HEK293T assessed as increase in ERK1/2 phosphorylation incubated for 7 mins by AlphaScreenSureFire method
# Cannabinoid receptor 2 [10] = target: T5, Cannabinoid receptor 2 (Homo sapiens, UniProt P34972, S285L); experiment: Partial agonist activity at CBR2 S2857.39L mutant (unknown origin) expressed in HEK293T assessed as increase in ERK1/2 phosphorylation incubated for 7 mins by AlphaScreenSureFire method
# T5 sequence (P34972 whole entry S285L): as the sequence (P34972 whole entry S285L) above
# Cannabinoid receptor 2 [11] = target: T3, Cannabinoid receptor 2; experiment: Partial agonist activity at wild type CB2 receptor (unknown origin) expressed in HEK293T assessed as increase in picometer shifts of reflected light wavelengths by DMR assay
# Cannabinoid receptor 2 [12] = target: T1, Cannabinoid receptor 2; experiment: Partial agonist activity at CBR2 A2827.36M mutant (unknown origin) expressed in HEK293T assessed as increase in ERK1/2 phosphorylation incubated for 7 mins by AlphaScreenSureFire method
# [13] = tested on: Cannabinoid receptor 2 (Homo sapiens), P34972 [S285L]; experiment: Partial agonist activity at CBR2 S2857.39L mutant (unknown origin) stably expressed in HEK293T assessed as decrease in forskolin induced cAMP level preincubated for 15 mins followed by forskolin addition incubated for 15 mins in presence of cannabidiol by HTRF assay relative to control; conditions: filed as partial agonist, time 30.0 min
# Cannabinoid receptor 2 [14] = target: T1, Cannabinoid receptor 2; experiment: Partial agonist activity at CBR2 A2827.36M mutant (unknown origin) expressed in HEK293T assessed as increase in ERK1/2 phosphorylation incubated for 7 mins in presence of cannabidiol by AlphaScreenSureFire method
# Cannabinoid receptor 2 [15] = target: T5, Cannabinoid receptor 2; experiment: Partial agonist activity at CBR2 S2857.39L mutant (unknown origin) stably expressed in HEK293T assessed as decrease in forskolin induced cAMP level preincubated for 15 mins followed by forskolin addition incubated for 15 mins by HTRF assay
# [16] = tested on: Cannabinoid receptor 2 (Homo sapiens), P34972 [S285L]; experiment: Partial agonist activity at CBR2 S2857.39L mutant (unknown origin) expressed in HEK293T assessed as increase in ERK1/2 phosphorylation incubated for 7 mins in presence of cannabidiol by AlphaScreenSureFire method relative to control; conditions: filed as partial agonist
# Cannabinoid receptor 2 [17] = target: T3, Cannabinoid receptor 2; experiment: Partial agonist activity at wild type CB2 receptor (unknown origin) stably expressed in HEK293T assessed as decrease in forskolin induced cAMP level preincubated for 15 mins followed by forskolin addition incubated for 15 mins by HTRF assay
# Cannabinoid receptor 2 [18] = target: T2, Cannabinoid receptor 2; experiment: Partial agonist activity at CBR2 V361.35M mutant (unknown origin) expressed in HEK293T assessed as increase in picometer shifts of reflected light wavelengths in presence of cannabidiol by DMR assay
# [19] = tested on: Cannabinoid receptor 2 (Homo sapiens), P34972 [A282M]; experiment: Partial agonist activity at CBR2 A2827.36M mutant (unknown origin) expressed in HEK293T assessed as increase in ERK1/2 phosphorylation incubated for 7 mins in presence of cannabidiol by AlphaScreenSureFire method relative to control; conditions: filed as partial agonist
# Cannabinoid receptor 2 (Homo sapiens), P34972 [A282M], sequence (P34972 whole entry A282M): as the sequence (P34972 whole entry S285L) above, with A282M, L285S counted along it
# Cannabinoid receptor 2 [20] = target: T4, Cannabinoid receptor 2; experiment: Partial agonist activity at CBR2 V1133.32M mutant (unknown origin) stably expressed in HEK293T assessed as decrease in forskolin induced cAMP level preincubated for 15 mins followed by forskolin addition incubated for 15 mins by HTRF assay
# Cannabinoid receptor 2 [21] = target: T3, Cannabinoid receptor 2; experiment: Partial agonist activity at wild type CB2 receptor (unknown origin) expressed in HEK293T assessed as increase in ERK1/2 phosphorylation incubated for 7 mins in presence of cannabidiol by AlphaScreenSureFire method
# [22] = tested on: Cannabinoid receptor 2 (Homo sapiens), P34972 [V113M]; experiment: Partial agonist activity at CBR2 V1133.32M mutant (unknown origin) expressed in HEK293T assessed as increase in ERK1/2 phosphorylation incubated for 7 mins in presence of cannabidiol by AlphaScreenSureFire method relative to control; conditions: filed as partial agonist
# [23] = tested on: Cannabinoid receptor 2 (Homo sapiens), P34972 [A282M]; experiment: Partial agonist activity at CBR2 A2827.36M mutant (unknown origin) expressed in HEK293T assessed as increase in picometer shifts of reflected light wavelengths by DMR assay relative to control; conditions: filed as partial agonist
# Cannabinoid receptor 2 [24] = target: T3, Cannabinoid receptor 2; experiment: Partial agonist activity at wild type CB2 receptor (unknown origin) expressed in HEK293T assessed as increase in picometer shifts of reflected light wavelengths in presence of cannabidiol by DMR assay
# [25] = tested on: Cannabinoid receptor 2 (Homo sapiens), P34972 [A282M]; experiment: Partial agonist activity at CBR2 A2827.36M mutant (unknown origin) stably expressed in HEK293T assessed as decrease in forskolin induced cAMP level preincubated for 15 mins followed by forskolin addition incubated for 15 mins in presence of cannabidiol by HTRF assay relative to control; conditions: filed as partial agonist, time 30.0 min
# [26] = tested on: Cannabinoid receptor 2 (Homo sapiens), P34972 [A282M]; experiment: Partial agonist activity at CBR2 A2827.36M mutant (unknown origin) expressed in HEK293T assessed as increase in picometer shifts of reflected light wavelengths in presence of cannabidiol by DMR assay relative to control; conditions: filed as partial agonist
# Cannabinoid receptor 2 [27] = target: T5, Cannabinoid receptor 2; experiment: Partial agonist activity at CBR2 S2857.39L mutant (unknown origin) expressed in HEK293T assessed as increase in ERK1/2 phosphorylation incubated for 7 mins in presence of cannabidiol by AlphaScreenSureFire method
# T1 sequence (P34972 whole entry A282M): as the sequence (P34972 whole entry S285L) above, with A282M, L285S counted along it
compound,measurement,setting,value
CCCC(C)(C)c1cc(O)c2c(c1)OC(C)(C)[C@@H]1CC=C(C)C[C@@H]21,EC50,Cannabinoid receptor 2 [1],12.6 nM
same,Emax,[2],223%
same,EC50,Cannabinoid receptor 2 [3],15.8 nM
same,Emax,[4],200%
same,EC50,Cannabinoid receptor 2 [5],50.1 nM
same,Emax,[6],79.9%
same,EC50,Cannabinoid receptor 2 [7],7.94 nM
same,EC50,Cannabinoid receptor 2 [8],501 nM
same,EC50,Cannabinoid receptor 2 [9],31.6 nM
same,EC50,Cannabinoid receptor 2 [10],39.8 nM
same,EC50,Cannabinoid receptor 2 [11],631 nM
same,EC50,Cannabinoid receptor 2 [12],20 nM
same,Emax,[13],57.4%
same,EC50,Cannabinoid receptor 2 [14],12.6 nM
same,EC50,Cannabinoid receptor 2 [15],39.8 nM
same,Emax,[16],291%
same,EC50,Cannabinoid receptor 2 [17],31.6 nM
same,EC50,Cannabinoid receptor 2 [18],631 nM
same,Emax,[19],352%
same,EC50,Cannabinoid receptor 2 [20],20 nM
same,EC50,Cannabinoid receptor 2 [21],7.94 nM
same,Emax,[22],216%
same,Emax,[23],199%
same,EC50,Cannabinoid receptor 2 [24],631 nM
same,Emax,[25],48.8%
same,Emax,[26],189%
same,EC50,Cannabinoid receptor 2 [27],31.6 nM
